Holding throughout (assay): inhibition of tumour cell growth, NCI panel, 48 h
In test [1] the test system is DU-145 prostate.
In test [2] the test system is MDA-N.
Test [3] deals with MCF7 breast.
Test [4] deals with HCC-2998 colon.
The test system of test [5] is HOP-92 NSCLC.
The test system of test [6] is NCI-H522 lung.
For test [7], the system named is 786-0 renal.
In test [8] the test system is UO-31 renal.
Test [9] has as its system A549 NSCLC.
Test [10] deals with HCT-116 colon.
For test [11], the system named is SK-MEL-5 melanoma.
The subject of test [12] is CAKI-1 renal.
In test [13] the test system is HCT-15 colon.
Test [14] relates to RXF 393 renal.
The subject of test [15] is SK-MEL-2 melanoma.
The subject of test [16] is OVCAR-4 ovarian.
Test [17] deals with MALME-3M melanoma.
Test [18] relates to CCRF-CEM leukemia.
The test system of test [19] is SK-OV-3 ovarian.

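48-hour exposure; five concentrations; linearly interpolated endpoints. TGI denotes the concentration required for complete inhibition of growth.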 Where a SMILES comes first, the peptide text is derived from it. The star is where a group is joined. Cbz = O=C(OCc1ccccc1)* Bounds are passed on as bounds.

For the molecule `CCOc1cc(C2SCC(=O)N2c2ccc3c(c2)Oc2c(Cl)c4c(c(Cl)c2=N3)Oc2cc(N3C(=O)CSC3c3ccc(O)c(OCC)c3)ccc2N=4)ccc1O` (centres undefined), the TGI was more than 100 µM in test [1]; more than 100 µM in test [2]; more than 100 µM in test [3]; more than 100 µM in test [4]; 59.1 µM in test [5]; more than 100 µM in test [6]. For the same molecule, the TGI in [7] is more than 100 µM; in [8], more than 100 µM; in test [9], 83.4 µM; in test [10], 41.4 µM; in [11] it was more than 100 µM; in [12], more than 100 µM. Further, the TGI in [13] is more than 100 µM; in [14], 58.9 µM; in test [15] it was 93.9 µM; in test [16] it was more than 100 µM.

For `O=C(O)c1ccccc1/C=C1/Cc2ccc3c(c2C1=O)CCC3`, the TGI was more than 100 µM in test [1]; more than 100 µM in test [2]; more than 100 µM in test [3]; 72.1 µM in test [4]; 80.8 µM in test [5]; more than 100 µM in test [17]. Besides, the TGI in test [6] is more than 100 µM; in test [7], more than 100 µM; in [8], more than 100 µM; in test [9] it was more than 100 µM; in test [10], more than 100 µM; in [11] it was 46.2 µM. Further, the TGI in test [12] is more than 100 µM; in [13], more than 100 µM; in [18] it was more than 100 µM; in [14] it was more than 100 µM; in test [15], 44.9 µM; in test [16] it was more than 100 µM.

Consider `COc1cc(NC(C)=O)ccc1C(=O)N/N=C/c1ccco1`, for which the TGI in test [1], in test [19], in test [2], in test [3], in [5] and in test [17] was more than 100 µM in each case. The TGI in [6], in test [7], in test [8], in [9], in test [10] and in [11] was more than 100 µM throughout. Further, the TGI in [12], in test [13], in test [18], in test [14], in [15] and in test [16] was more than 100 µM in each case.

Take `CCOC(=O)C(NC(=O)c1ccccc1)(c1ccc(S(=O)(=O)Nc2onc(C)c2C)cc1)C(F)(F)F` (centres undefined): the TGI in [1], in test [19], in test [2], in test [3], in test [4] and in test [5] was more than 100 µM in each case. Besides, the TGI in [17], in test [7], in test [8], in test [9], in test [10] and in test [11] was more than 100 µM each time. Besides, the TGI in [12], in [13], in test [18], in [14], in [15] and in test [16] was more than 100 µM each time.

For the molecule `O=C1/C(=C/c2ccccc2)CCc2ccc([N+](=O)[O-])cc21`, the TGI in [1], in test [19], in [2], in [3], in test [4] and in test [5] was more than 100 µM each time. For the same molecule, the TGI was more than 100 µM in test [17]; more than 80.3 µM in test [7]; more than 100 µM in test [8]; more than 100 µM in test [9]; more than 100 µM in [10]; more than 91.2 µM in [11]. For the same molecule, the TGI in test [12] was more than 100 µM; in test [13], more than 100 µM; in [18] it was more than 100 µM; in test [14] it was 77.7 µM; in test [15], 38.3 µM; in [16], more than 100 µM.

As for `Cc1ccc(N=C2OP(=O)(Nc3ccc(C)cc3)Oc3ccccc32)cc1` (centres undefined), the TGI is more than 100 µM in [1]; more than 100 µM in [19]; more than 100 µM in test [2]; more than 100 µM in test [3]; more than 100 µM in [4]; 90.5 µM in test [5]. Further, the TGI in test [17], in test [7], in [8], in test [9], in test [10] and in test [11] was more than 100 µM each time. Besides, the TGI in test [12], in test [13], in [18], in [14], in test [15] and in [16] was more than 100 µM in each case.

Take `CC(=O)Nn1cnc(C(=N)C#N)c1N`: the TGI in test [1], in [19], in test [2], in [3], in [4] and in [17] was more than 100 µM throughout. The TGI in [6], in test [7], in test [8], in test [9], in test [10] and in [11] was more than 100 µM in each case. The TGI in [12], in [13], in test [18], in [15] and in test [16] was more than 100 µM throughout.

Take `CCCCc1nc(C)oc1C(C)C`: the TGI in test [1], in test [19], in test [2], in [3], in test [4] and in [5] was more than 100 µM throughout. The TGI in test [17], in test [6], in test [7], in [8], in test [9] and in test [10] was more than 100 µM throughout. Besides, the TGI in test [11], in [12], in [13], in [18], in test [14] and in [16] was more than 100 µM in each case.

In the case of `CN(C)c1ccc(C2CC(=O)CC(c3ccc(N(C)C)cc3)C23C(=O)NC(=S)NC3=O)cc1` (centres undefined), the TGI in [1], in test [19], in test [2], in test [3], in [4] and in test [5] was more than 100 µM each time. Moreover, the TGI in test [17], in test [7], in [8], in test [9], in test [10] and in [11] was more than 100 µM each time. Further, the TGI in test [12], in test [13], in [18], in test [14], in test [15] and in [16] was more than 100 µM throughout.

Regarding `O=C(c1ccccc1)N(CCCCNC(=O)C(F)(F)F)CCCNC(=O)C(F)(F)F`, the TGI in [1], in test [19], in test [2], in test [3], in [4] and in test [5] was more than 100 µM throughout. The TGI in [17], in test [6], in test [7], in test [8], in test [9] and in test [10] was more than 100 µM throughout. The TGI in test [11], in test [12], in test [13], in [18], in test [14] and in [16] was more than 100 µM in each case.

On to `COC(=O)C(CC(C)C)NC(=O)C(CCCN=C(N)N)NC(=O)OCc1ccccc1` (stereo not drawn) (Cbz-Arg-Leu-OMe; configuration not given here), for which the TGI in test [1], in [19], in [2], in [3], in test [4] and in [5] was more than 100 µM each time. For the same molecule, the TGI in test [17], in test [6], in test [7], in [8], in test [9] and in test [10] was more than 100 µM each time. Further, the TGI in [11], in test [12], in test [13], in test [18], in test [14] and in test [16] was more than 100 µM each time.

As to `COc1ccc(N/N=C/C2=CC(C)(C)C(C#N)(C#N)C(O)=C2C#N)cc1`, the TGI in [1] is more than 100 µM; in [2] it was more than 100 µM; in test [3], more than 100 µM; in test [5] it was 75.6 µM; in [17] it was more than 100 µM; in test [6], more than 100 µM. Also, the TGI in test [7], in [8], in [9], in [10], in test [11] and in test [12] was more than 100 µM each time. For the same molecule, the TGI in test [13], in test [18], in [14], in [15] and in test [16] was more than 100 µM each time.

Regarding `O=C(Nc1ccccc1)c1cc(S(=O)(=O)N2CCNC2=O)c(S)cc1Cl`, the TGI in test [1], in [19], in [2], in test [3], in test [4] and in [5] was more than 100 µM each time. Further, the TGI in test [6], in test [7], in test [8], in test [9], in [10] and in test [11] was more than 100 µM each time. The TGI in test [12], in test [13], in test [18], in test [14], in [15] and in test [16] was more than 100 µM throughout.

With `OCC(O)COCn1cc(Cn2ncc3c(NCc4ccccc4)ncnc32)nn1` (centres undefined), the TGI in test [1], in test [19], in [2], in test [3], in test [4] and in [5] was more than 100 µM each time. Also, the TGI is 33.4 µM in [6]; more than 100 µM in test [7]; more than 100 µM in test [8]; more than 100 µM in [9]; more than 100 µM in test [10]; more than 100 µM in test [11]. The TGI in [12], in test [13], in [18], in test [15] and in test [16] was more than 100 µM in each case.

On to `CCOC(=O)/C(=C\c1cn(C(C)=O)c2ccccc12)P(C)(=O)OCC` (centres undefined), for which the TGI in test [1] was more than 100 µM; in [19], 66.1 µM; in test [2] it was more than 100 µM; in [3], more than 100 µM; in test [4] it was 94.3 µM; in test [5] it was 66.8 µM. Besides, the TGI in [17] was more than 100 µM; in test [6], 67.2 µM; in test [7], more than 100 µM; in test [8], more than 100 µM; in test [9], more than 100 µM; in test [10], more than 100 µM. In addition, the TGI in test [11], in test [12], in [13], in [18] and in [15] was more than 100 µM throughout.

(Values after PubChem BioAssay (NCI).)
